Measurements: patent US12516067B2, “Antagonists of the muscarinic acetylcholine receptor M4” (Vanderbilt University, priority 2020, dated 2026)

Target: T1, Human M4 (Homo sapiens, UniProt P08173)
T1 construct: expressed in transfected cells; host or cells: CHO-K1 (ATCC), co-transfected with chimeric G protein Gqi5
T1 sequence (P08173 1-479): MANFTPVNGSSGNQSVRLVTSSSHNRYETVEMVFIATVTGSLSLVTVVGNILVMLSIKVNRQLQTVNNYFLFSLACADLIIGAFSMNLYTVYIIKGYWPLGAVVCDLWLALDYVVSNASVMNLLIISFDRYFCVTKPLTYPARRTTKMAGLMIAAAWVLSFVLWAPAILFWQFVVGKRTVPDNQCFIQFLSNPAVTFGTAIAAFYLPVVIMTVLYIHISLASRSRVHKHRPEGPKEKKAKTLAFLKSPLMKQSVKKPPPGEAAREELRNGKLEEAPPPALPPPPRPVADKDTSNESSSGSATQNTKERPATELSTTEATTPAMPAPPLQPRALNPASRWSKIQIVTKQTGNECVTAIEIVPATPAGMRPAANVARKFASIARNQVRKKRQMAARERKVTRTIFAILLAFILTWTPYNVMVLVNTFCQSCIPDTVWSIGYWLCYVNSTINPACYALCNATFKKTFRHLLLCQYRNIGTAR
Experiment: mAChR M4 cell-based functional assay (calcium flux, decrease of EC80 acetylcholine response) in M4/Gqi5/CHO-K1 cells
Conditions: CHO-K1 cells with human M4 and Gqi5; for remaining activity at 30 µM: % ACh maximum at 30 μM, read-out: Human M4 Emin; for IC50: antagonist mode: concentration-dependent decrease of response to EC80 acetylcholine
Procedure: Human or rat M4 cDNA, along with the chimeric G protein Gqi5, were transfected into Chinese hamster ovary (CHO-K1) cells purchased from the American Type Culture Collection using Lipofectamine2000. M4/Gqi5/CHO cells were grown in Ham's F-12 medium containing 10% heat-inactivated fetal bovine serum (FBS), 20 mM HEPES, 500 μg/mL G418 sulfate, and 200 μg/mL Hygromycin B.
For high throughput measurement of agonist-evoked increases in intracellular calcium, CHO-K1 cells stably expressing muscarinic receptors were plated in growth medium lacking G418 and hygromycin at 15,000 cells/20 μL/well in Greiner 384-well black-walled, tissue culture (TC)-treated, clear-bottom plates (VWR). Cells were incubated overnight at 37° C. and 5% CO2. The next day, cells were washed using an ELX 405 (BioTek) with assay buffer; the final volume was then aspirated to 20 μL. Next, 20 μL of a 2.3 μM stock of Fluo-4/acetoxymethyl ester (Invitrogen, Carlsbad, CA), prepared as a 2.3 mM stock in DMSO and mixed in a 1:1 ratio with 10% (w/v) Pluronic F-127 and diluted in assay buffer, was added to the wells and the cell plates were incubated for 50 min at 37° C. and 5% CO2. Dye was removed by washing with the ELX 405 and the final volume was aspirated to 20 μL. Compound master plates were formatted in a 10 point concentration-response curve (CRC) format (1:3 dilutions) in 100% DMSO with a starting concentration of 10 or 1 mM using a BRAVO liquid handler (Agilent). Test compound CRCs were then transferred to daughter plates (240 nL) using the Echo acoustic plate reformatter (Labcyte, Sunnyvale, CA) and then diluted into assay buffer (40 μL) to a 2× stock using a Thermo Fisher Combi (Thermo Fisher Scientific, Waltham, MA).
Calcium flux was measured using the Functional Drug Screening System (FDSS) 6000 or 7000 (Hamamatsu Corporation, Tokyo, Japan) as an increase in the fluorescent static ratio. Compounds were applied to cells (20 μL, 2×) using the automated system of the FDSS at 2 seconds into the protocol and the data were collected at 1 Hz. At 143 s, 10 μL of an EC20 concentration of the muscarinic receptor agonist acetylcholine was added (5×), followed by the addition of 12 μL of an EC80 concentration of acetylcholine at the 268 s time point (5×). Agonist activity was analyzed as a concentration-dependent increase in calcium mobilization upon compound addition. Positive allosteric modulator activity was analyzed as a concentration-dependent increase in the EC20 acetylcholine response. Antagonist activity was analyzed as a concentration-dependent decrease in the EC80 acetylcholine response; for the purposes of the tables herein, an IC50 (inhibitory concentration 50) was calculated as a concentration-dependent decrease of the response elicited by an EC80 concentration of acetylcholine. Concentration-response curves were generated using a four-parameter logistical equation in XLFit curve fitting software (IDBS, Bridgewater, NJ) for Excel (Microsoft, Redmond, WA) or Prism (GraphPad Software, Inc., San Diego, CA) or the Dotmatics software platform (Dotmatics, Bishop's Stortford, UK).
Compounds were synthesized as described above. Activity (IC50 and Emin) was determined in the mAChR M4 cell-based functional assay as described above and the data are shown in Table 1.

Row | SMILES | remaining activity at 30 µM [%] | IC50 [µM]
1 | Cc1ccc(CN2CCc3c(CNc4ccc(-c5cc(F)ccc5Cl)nn4)csc3C2)nc1 [A12, 6-(2-chloro-5-fluorophenyl)-N-((6-((5-methylpyridin-2-yl)methyl)-4,5,6,7-tetrahydrothieno[2,3-c]pyridin-3-yl)methyl)pyridazin-3-amine] | 10 | 1.48
2 | OC1(CN2CCc3c(CNc4ccc(-c5cc(F)ccc5Cl)nn4)csc3C2)CCCCC1 [A13, 1-((3-(((6-(2-chloro-5-fluorophenyl)pyridazin-3-yl)amino)methyl)-4,7-dihydrothieno[2,3-c]pyridin-6(5H)-yl)methyl)cyclohexan-1-ol] | 4 | 0.276
3 | CN(Cc1csc2c1CCN(CC1CCOCC1)C2)c1ccc(-c2cc(F)ccc2Cl)nn1 [A14, 6-(2-chloro-5-fluorophenyl)-N-methyl-N-((6-((tetrahydro-2H-pyran-4-yl)methyl)-4,5,6,7-tetrahydrothieno[2,3-c]pyridin-3-yl)methyl)pyridazin-3-amine] | 7 | 1.68
4 | [2H]C([2H])([2H])N(Cc1csc2c1CCN(CC1CCOCC1)C2)c1ccc(-c2cc(F)ccc2Cl)nn1 [A15, 6-(2-chloro-5-fluorophenyl)-N-(methyl-d3)-N-((6-((tetrahydro-2H-pyran-4-yl)methyl)-4,5,6,7-tetrahydrothieno[2,3-c]pyridin-3-yl)methyl)pyridazin-3-amine] | 8 | 0.957
5 | [2H]C([2H])(C1CCOCC1)N1CCc2c(CNc3ccc(-c4cc(F)ccc4Cl)nn3)csc2C1 [A16, 6-(2-chloro-5-fluorophenyl)-N-((6-((tetrahydro-2H-pyran-4-yl)methyl-d2)-4,5,6,7-tetrahydrothieno[2,3-c]pyridin-3-yl)methyl)pyridazin-3-amine] | 5 | 0.0465
6 | Fc1ccc(Cl)c(-c2ccc(NCc3cccc4c3CCN(CC3CCOCC3)C4)nn2)c1 [B1, 6-(2-chloro-5-fluorophenyl)-N-((2-((tetrahydro-2H-pyran-4-yl)methyl)-1,2,3,4-tetrahydroisoquinolin-5-yl)methyl)pyridazin-3-amine] | 6 | 0.356
7 | CC(C)(C)CCN1CCc2c(CNc3ccc(-c4cc(F)ccc4Cl)nn3)cccc2C1 [B2, 6-(2-chloro-5-fluorophenyl)-N-((2-(3,3-dimethylbutyl)-1,2,3,4-tetrahydroisoquinolin-5-yl)methyl)pyridazin-3-amine] | 6 | 0.0989
8 | Fc1ccc(Cl)c(-c2ccc(NCc3cccc4c3CCN(CC3CCCCC3)C4)nn2)c1 [B3, 6-(2-chloro-5-fluorophenyl)-N-((2-(cyclohexylmethyl)-1,2,3,4-tetrahydroisoquinolin-5-y1)methyl)pyridazin-3-amine] | 6 | 0.251
9 | Fc1ccc(Cl)c(-c2ccc(NCc3cccc4c3CCN(Cc3ccccn3)C4)nn2)c1 [B4, 6-(2-chloro-5-fluorophenyl)-N-((2-(pyridin-2-ylmethyl)-1,2,3,4-tetrahydroisoquinolin-5-yl)methyl)pyridazin-3-amine] | 6 | 0.288
10 | Fc1ccc(Cl)c(-c2ccc(NCc3cccc4c3CCN(CCC3CCOCC3)C4)nn2)c1 [B5, 6-(2-chloro-5-fluorophenyl)-N-((2-(2-(tetrahydro-2H-pyran-4-yl)ethyl)-1,2,3,4-tetrahydroisoquinolin-5-yl)methyl)pyridazin-3-amine] | 6 | 0.087
11 | OC1(CN2CCc3c(CNc4ccc(-c5cc(F)ccc5Cl)nn4)cccc3C2)CCCCC1 [B6, 1-((5-(((6-(2-chloro-5-fluorophenyl)pyridazin-3-yl)amino)methyl)-3,4-dihydroisoquinolin-2(1H)-yl)methyl)cyclohexan-1-ol] | 6 | 0.257
12 | Fc1cc(F)c(F)c(-c2ccc(NCc3cccc4c3CCN(CC3CCOCC3)C4)nn2)c1 [B7, N-((2-((tetrahydro-2H-pyran-4-yl)methyl)-1,2,3,4-tetrahydroisoquinolin-5-yl)methyl)-6-(2,3,5-trifluorophenyl)pyridazin-3-amine] | 11 | 0.616
13 | Fc1ccc(F)c(-c2ccc(NCc3cccc4c3CCN(CC3CCOCC3)C4)nn2)c1 [B8, 6-(2,5-difluorophenyl)-N-((2-((tetrahydro-2H-pyran-4-yl)methyl)-1,2,3,4-tetrahydroisoquinolin-5-yl)methyl)pyridazin-3-amine] | 8 | 0.781
14 | Cn1cc2cc(-c3ccc(NCc4cccc5c4CCN(CC4CCOCC4)C5)nn3)ccc2n1 [B9, 6-(2-methyl-2H-indazol-5-yl)-N-((2-((tetrahydro-2H-pyran-4-yl)methyl)-1,2,3,4-tetrahydroisoquinolin-5-yl)methyl)pyridazin-3-amine] | 8 | 1.25
15 | Cc1ccc(F)cc1-c1ccc(NCc2cccc3c2CCN(CC2CCOCC2)C3)nn1 [B10, 6-(5-fluoro-2-methylphenyl)-N-((2-((tetrahydro-2H-pyran-4-yl)methyl)-1,2,3,4-tetrahydroisoquinolin-5-yl)methyl)pyridazin-3-amine] | 5 | 0.335
16 | CC(=O)Nc1ccc(-c2ccc(NCc3cccc4c3CCN(CC3CCOCC3)C4)nn2)cc1 [B11, N-(4-(6-(((2-((tetrahydro-2H-pyran-4-yl)methyl)-1,2,3,4-tetrahydroisoquinolin-5-yl)methyl)amino)pyridazin-3-yl)phenyl)acetamide] | 12 | 2.7
17 | c1ccc(-c2ccc(NCc3cccc4c3CCN(CC3CCOCC3)C4)nn2)cc1 [B12, 6-phenyl-N-((2-((tetrahydro-2H-pyran-4-yl)methyl)-1,2,3,4-tetrahydroisoquinolin-5-yl)methyl)pyridazin-3-amine] | 13 | 3.38
18 | [2H]C([2H])(C1CCOCC1)N1CCc2c(CNc3ccc(-c4cc(F)ccc4Cl)nn3)cccc2C1 [B13, 6-(2-chloro-5-fluorophenyl)-N-((2-((tetrahydro-2H-pyran-4-yl)methyl-d2)-1,2,3,4-tetrahydroisoquinolin-5-yl)methyl)pyridazin-3-amine] | 4 | 0.15
19 | [2H]C([2H])(C1CCOCC1)N1CCc2c(CNc3ccc(-c4cc(F)cc(F)c4F)nn3)cccc2C1 [B14, N-((2-((tetrahydro-2H-pyran-4-yl)methyl-d2)-1,2,3,4-tetrahydroisoquinolin-5-yl)methyl)-6-(2,3,5-trifluorophenyl)pyridazin-3-amine] | 5 | 0.919
